Common to all, as to format: physicochemical
A short description of series [1]: Stability test (influence factors: high-humidity, light irradiation, accelerated test); sample purity measured. To be noted: for purity of the sample, accelerated test: accelerated test 40° C.±2° C., relative humidity 75%±5%; for purity of the sample, initial value: day 0, initial value; for purity of the sample, high-humidity test: high-humidity 25° C., 92.5% RH; for purity of the sample, light irradiation test: light irradiation 10000 lx±500 lx. An excerpt: The tests last for 10 days. Samples were taken on days 0, 5 and 10 to measure the purities of the samples so as to determine their stabilities.

Series [2] in a line: Moisture content after storage under high humidity and accelerated test conditions. Particulars: high humidity (25° C., 92.5% RH) and accelerated test conditions (40±2° C., 75%±5% RH) for 10 days.
Series [3] is described as follows: Intrinsic dissolution rate, rotating disk method (USP Chapter 1087). To be noted: 700 ml 0.1 mol/L hydrochloric acid, 300 rpm, 37° C., detection 287 nm. As for the experimental part:
Intrinsic dissolution rates of the crystalline Form A of nintedanib diethanesulfonate prepared in Example 1 and the crystalline form of nintedanib diethanesulfonate prepared according to WO2012068441 (the existing crystal) were determined by using the intrinsic dissolution rotating disk method in Chapter 1087 of the U.S. Pharmacopeia, and the results are shown in Table 2. Dissolution Medium: 700 ml of 0.1 mol/L hydrochloric acid solution, Rotating Speed: 300 rpm, Detection Wavelength: 287 nm, Medium Temperature: 37° C.

Each structure is given as a SMILES string.

As to `CCS(=O)(=O)O.COC(=O)c1ccc2c(c1)NC(=O)/C2=C(\Nc1ccc(N(C)C(=O)CN2CCN(C)CC2)cc1)c1ccccc1` [The crystalline Form A, nintedanib diethanesulfonate], in series [1] (day 10), the “purity of the sample, accelerated test” value is 99.77%; the “purity of the sample, high-humidity test” value was 99.79%; the “purity of the sample, light irradiation test” value came to 99.70%. Moreover, the “purity of the sample, initial value” in series [1] was determined as 99.80%. Further, in series [1] (day 5), the “purity of the sample, high-humidity test” value is 99.78% and the “purity of the sample, light irradiation test” value is listed as 99.79%. In addition, the moisture content result in series [2] (listed as crystalline Form A of nintedanib diethanesulfonate) is listed as “essentially unchanged”. In series [3], this molecule yielded an Average dissolution rate of 22.508 µg/mL/min and a Maximum dissolution rate of 23.344 µg/mL/min.
On to `CCS(=O)(=O)O.COC(=O)c1ccc2c(c1)NC(=O)/C2=C(\Nc1ccc(N(C)C(=O)CN2CCN(C)CC2)cc1)c1ccccc1` [The existing crystal, nintedanib diethanesulfonate], for which, in series [1] (day 10), the “purity of the sample, accelerated test” value is on record as 95.10%; the “purity of the sample, high-humidity test” value is on record as 99.67%; the “purity of the sample, light irradiation test” value is recorded as 99.19%. In addition, the “purity of the sample, initial value” in series [1] is given as 99.78%. Besides, in series [1] (day 5), the “purity of the sample, high-humidity test” value turned out to be 99.72% and the “purity of the sample, light irradiation test” value is recorded as 99.73%. Also, the “character (appearance) after storage” value in series [2] is recorded as “absorbs moisture to become clumping”. In addition, the moisture content result in series [2] (listed as crystalline form of nintedanib diethanesulfonate prepared according to WO2012068) is “increases significantly”. In series [3], this molecule registered an Average dissolution rate of 13.373 µg/mL/min and a Maximum dissolution rate of 14.689 µg/mL/min.
